Source: the NIST ThermoML archive (doi:10.1021/je700717w)

Tests used:
[1] = xn = mol fraction of the nth substance listed; details: 101 kPa, Liquid, Taylor dispersion method, x1 = 0
[2] = 101 kPa, Liquid, Taylor dispersion method

| binary diffusion coefficient ([1]; 293.15 K) [m2/s] | binary diffusion coefficient ([1]; 298.15 K) [m2/s] | binary diffusion coefficient ([1]; 303.15 K) [m2/s] | binary diffusion coefficient ([1]; 313.15 K) [m2/s] | binary diffusion coefficient ([1]; 323.15 K) [m2/s] | binary diffusion coefficient ([1]; 333.15 K) [m2/s] | binary diffusion coefficient ([1]; 343.15 K) [m2/s] | binary diffusion coefficient ([1]; 353.15 K) [m2/s] | binary diffusion coefficient ([1]; 363.15 K) [m2/s] | binary diffusion coefficient ([1]; 368.15 K) [m2/s] | self diffusion coefficient ([2]; 293.15 K) [m2/s] | self diffusion coefficient ([2]; 298.15 K) [m2/s] | self diffusion coefficient ([2]; 303.15 K) [m2/s] | self diffusion coefficient ([2]; 313.15 K) [m2/s] | self diffusion coefficient ([2]; 323.15 K) [m2/s] | self diffusion coefficient ([2]; 333.15 K) [m2/s] | self diffusion coefficient ([2]; 343.15 K) [m2/s] | self diffusion coefficient ([2]; 353.15 K) [m2/s] | self diffusion coefficient ([2]; 363.15 K) [m2/s] | self diffusion coefficient ([2]; 368.15 K) [m2/s] | SMILES |
| --- | --- | --- | --- | --- | --- | --- | --- | --- | --- | --- | --- | --- | --- | --- | --- | --- | --- | --- | --- | --- |
| 1.7e-09 | 2.05e-09 | 2.3e-09 | 2.99e-09 | 4.02e-09 | 4.9e-09 | 5.79e-09 | 7.09e-09 | 8.23e-09 | 8.87e-09 |  |  |  |  |  |  |  |  |  |  | [N-]=[N+]=O [nitrous oxide] + O |
|  |  |  |  |  |  |  |  |  |  | 1.7e-09 | 2.05e-09 | 2.3e-09 | 2.99e-09 | 4.02e-09 | 4.9e-09 | 5.79e-09 | 7.09e-09 | 8.23e-09 | 8.87e-09 | O [water] |
